Reference: PMC8811472, “Systematic In Vitro Evaluation of a Library of Approved and Pharmacologically Active Compounds for the Identification of Novel Candidate Drugs for KMT2A-Rearranged Leukemia” (Frontiers in Oncology, 2022)

Assays:
[1] = tested on: cleavage of PARP and caspase-3; test: Western blot of apoptotic markers; assay type: cell-based, human; settings: sensitive KMT2A-r leukemia cells, not in KMT2A-wt
Method: Western blotting experiments were performed as previously described ([7]). Antibodies used are listed in Supplementary Table 2 . Actin was used as a loading control.

KELLY cells = test: 72-hour resazurin-based cytotoxicity assay, KELLY; assay type: cell-based, human; settings: neuroblastoma
Method: (§1) All cell lines used in this study were mycoplasma-free and have been authenticated using STR profiling. Cells were cultured as previously described ([7], [8]). Characteristics of the leukemia cell lines used in this study are described in Supplementary Table 1 . Peripheral blood mononuclear cells from healthy donors were purchased from Australian Red Cross.
(§2) The cytotoxicity of drugs was assessed through resazurin-based assays and the inhibitory concentration resulting in 50% reduction of cell survival relative to control (IC50) was calculated as previously described ([7]). In synergy studies, cells were exposed to a dilution series of compounds, as single agents or in combination, in resazurin-based assays (72 hours) as described ([8]–[10]). The occurrence of synergy was determined with the Bliss Independence model as previously described ([8]–[10]). Bliss Prediction curves indicated the predicted percentage viability of the cells when exposed to the combination of compounds if both compounds work additively together. Synergy was visualised as the presence of a lower cell viability upon combination of two compounds compared to the viability predicted based on the presence of an additive effect of the compounds (i.e., the viability curve of the combination runs below the Bliss Prediction curve). […]

KP-MO-TS cells = test: 72-hour resazurin-based cytotoxicity assay, KP-MO-TS; assay type: cell-based, human; settings: CALM-AF10, AML
Method: as §1, §2

REH cells = test: 72-hour resazurin-based cytotoxicity assay, REH; parameters: species or system human; settings: KMT2A-wt, pre-B cell ALL
Method: as §1
(§3) The cytotoxicity of drugs was assessed through resazurin-based assays and the inhibitory concentration resulting in 50% reduction of cell survival relative to control (IC50) was calculated as previously described ([7]). In synergy studies, cells were exposed to a dilution series of compounds, as single agents or in combination, in resazurin-based assays (72 hours) as described ([8]–[10]). The occurrence of synergy was determined with the Bliss Independence model as previously described ([8]–[10]). Bliss Prediction curves indicated the predicted percentage viability of the cells when exposed to the combination of compounds if both compounds work additively together. Synergy was visualised as the presence of a lower cell viability upon combination of two compounds compared to the viability predicted based on the presence of an additive effect of the compounds (i.e., the viability curve of the combination runs below the Bliss Prediction curve). The percentage of apoptotic cells was assessed by annexin V and 7-Aminoactinomycin D (7-AAD) (BD Biosciences, Australia) flow cytometry as previously described ([7]).

RS4;11 cells = test: 72-hour resazurin-based cytotoxicity assay, RS4;11; parameters: species or system human; settings: RS4;11, KMT2A-r t(4;11), pre-B cell ALL
Method: as §1, §3

LNCaP cells = test: 72-hour resazurin-based cytotoxicity assay, LNCaP; assay type: cell-based, human; settings: prostate carcinoma
Method: as §1, §2

[2] = tested on: peripheral blood mononuclear cells from healthy donors; test: 72-hour resazurin-based viability assay, PBMC from healthy donors; assay type: cell-based, human; settings: for IC50: PBMC, 72 h resazurin
Method: as §1, §3

MV4;11 cells = test: 72-hour resazurin-based cytotoxicity assay, MV4;11; assay type: cell-based, human; settings: MV4;11, KMT2A-r t(4;11), childhood AML
Method: as §1, §2

CEM cells = test: 72-hour resazurin-based cytotoxicity assay, CEM; parameters: species or system human; settings: KMT2A-wt, childhood T-cell ALL
Method: as §1, §3

THP-1 cells = test: 72-hour resazurin-based cytotoxicity assay, THP-1; assay type: cell-based, human; settings: THP-1, KMT2A-r t(9;11), infant AML
Method: as §1, §3

27/87 cells = test: 72-hour resazurin-based cytotoxicity assay, 27/87; assay type: cell-based, human; settings: 27/87, endometrioid ovarian cancer
Method: as §1, §2

PER-826 cells = test: 72-hour resazurin-based cytotoxicity assay, PER-826; assay type: cell-based, human; settings: PER-826, KMT2A-r complex t(11;19), infant ALL
Method: as §1, §2

KMT2A-wt REH cells = test: Synergy study (Bliss Independence model), REH; assay type: cell-based, human; settings: 72 h
Method: as §3

U937 cells = test: 72-hour resazurin-based cytotoxicity assay, U937; assay type: cell-based, human; settings: U937, CALM-AF10, AML
Method: as §1, §2

MCF-7 cells = test: 72-hour resazurin-based cytotoxicity assay, MCF-7; assay type: cell-based, human; settings: MCF-7, breast adenocarcinoma
Method: as §1, §2

Jurkat cells = test: 72-hour resazurin-based cytotoxicity assay, Jurkat; parameters: species or system human; settings: KMT2A-wt, childhood T-cell ALL
Method: as §1, §3

HEY cells = test: 72-hour resazurin-based cytotoxicity assay, HEY; assay type: cell-based, human; settings: ovarian carcinoma
Method: as §1, §2

SEMK2 cells = test: 72-hour resazurin-based cytotoxicity assay, SEMK2; parameters: species or system human; settings: SEMK2, KMT2A-r t(4;11), pre-B cell childhood ALL
Method: as §1, §3

KOPN-8 cells = test: 72-hour resazurin-based cytotoxicity assay, KOPN-8; parameters: species or system human; settings: KOPN-8, KMT2A-r t(11;19), infant pre-B cell ALL
Method: as §1, §2

H460 cells = test: 72-hour resazurin-based cytotoxicity assay, H460; assay type: cell-based, human; settings: H460, lung carcinoma
Method: as §1, §2

PER-485 cells [3] = test: 72-hour resazurin-based cytotoxicity assay, PER-485; assay type: cell-based, human; settings: PER-485, KMT2A-r t(4;11), infant ALL derived
Method: as §1, §3

WI-38 cells = test: 72-hour resazurin-based cytotoxicity assay, WI-38; assay type: cell-based, human; settings: WI-38, non-malignant, normal lung
Method: as §1, §2

PER-785 cells = test: 72-hour resazurin-based cytotoxicity assay, PER-785; assay type: cell-based, human; settings: PER-785, KMT2A-r t(4;11), infant ALL
Method: as §1, §2

BE(2)C cells = test: 72-hour resazurin-based cytotoxicity assay, BE(2)C; assay type: cell-based, human; settings: childhood neuroblastoma
Method: as §1, §2

PER-490 cells = test: 72-hour resazurin-based cytotoxicity assay, PER-490; assay type: cell-based, human; settings: PER-490, KMT2A-r t(4;11), infant ALL
Method: as §1, §2

MOLM-13 cells = test: 72-hour resazurin-based cytotoxicity assay, MOLM-13; assay type: cell-based, human; settings: MOLM-13, KMT2A-r t(9;11), AML
Method: as §1, §3

PER-485 cells [4] = test: Synergy study (Bliss Independence model), PER-485; assay type: cell-based, human; settings: PER-485, 72 h
Method: as §3

MRC-5 cells = test: 72-hour resazurin-based cytotoxicity assay, MRC-5; assay type: cell-based, human; settings: MRC-5, non-malignant, normal lung
Method: as §1, §3

PER-703 cells = test: 72-hour resazurin-based cytotoxicity assay, PER-703; assay type: cell-based, human; settings: PER-703, KMT2A-r t(1;11), infant ALL derived
Method: as §1, §2

[5] = Mouse liver microsomal stability assay; assay type: in vitro ADME; settings: mouse liver microsomes
Text: Compound half-life was estimated by mouse liver microsomal stability assays as described ([10]).

MOLM13 cells = test: Synergy study (Bliss Independence model), MOLM13; assay type: cell-based, human; settings: MOLM13, 72 h
Method: as §3

[6] = tested on: NR5A1 target genes ENO1 and PKM; KMT2A target genes; test: qRT-PCR of gene expression after treatment; assay type: cell-based, human; settings: three hours
Method: Total RNA was isolated using a Qiagen RNeasy kit and cDNA synthesized using the iScript cDNA Synthesis Kit (BioRad). Quantitative PCR was run and analyzed on Applied Biosystem’s QuantStudio5 Real-Time PCR Detection System, using Taqman gene expression assays for genes NR5A1 (Hs00610436_m1), GUSB (Hs99999908_m1) and HPRT (Hs99999909_m1) Relative expressions were determined as previously described ([7]).

[7] = tested on: KMT2A-r cells (PER-485 and THP-1); test: Annexin V positive cells, KMT2A-r cells; assay type: cell-based, human; settings: as early as 6 hours post-exposure; IC50 doses
Method: as §3

half-life in microsomal stability assays [5]: short half-life
SMILES: CCOC(=O)C(C)Oc1cccc2c(=O)n(CC(=O)Nc3ccc4c(c3)OCCO4)ccc12 (centres unmarked) [SID7969543]
cleavage of PARP and caspase-3 [1]: increased cleavage
IC50 (KELLY cells): > 20 µM
IC50 (KP-MO-TS cells): 1.9 µM
IC50 (REH cells): > 20 µM
IC50 (RS4;11 cells): > 20 µM
IC50 (LNCaP cells): > 20 µM
IC50 ([2]; Donor 1): > 20 µM
IC50 ([2]; Donor 2): > 20 µM
IC50 ([2]; Donor 3): > 20 µM
viability of peripheral blood mononuclear cells (PBMC) ([2]; healthy donors, doses that inhibit KMT2A-r leukemia cells): did not significantly impact the viability
IC50 (MV4;11 cells): 2.5 µM
IC50 (CEM cells): > 20 µM
IC50 (THP-1 cells): 2.6 µM
IC50 (27/87 cells): > 20 µM
IC50 (PER-826 cells): > 20 µM
combination effect (Bliss) (KMT2A-wt REH cells; with cytarabine): No synergy
combination effect (Bliss) (KMT2A-wt REH cells; with daunorubicin): No synergy
combination effect (Bliss) (KMT2A-wt REH cells; with etoposide): No synergy
IC50 (U937 cells): 1.9 µM
IC50 (MCF-7 cells): > 20 µM
IC50 (Jurkat cells): > 20 µM
IC50 (HEY cells): > 20 µM
IC50 (SEMK2 cells): > 20 µM
IC50 (KOPN-8 cells): > 20 µM
IC50 (H460 cells): > 20 µM
IC50 (PER-485 cells [3]): 1.4 µM
IC50 (WI-38 cells): > 20 µM
IC50 (PER-785 cells): 5 µM
IC50 (BE(2)C cells): > 20 µM
IC50 (PER-490 cells): 1.9 µM
IC50 (MOLM-13 cells): 1 µM
combination effect (Bliss) (PER-485 cells [4]; with cytarabine): synergy
combination effect (Bliss) (PER-485 cells [4]; with daunorubicin): synergy
combination effect (Bliss) (PER-485 cells [4]; with etoposide): synergy
combination effect (Bliss) (PER-485 cells [4]; with mitoxantrone): additive
combination effect (Bliss) (PER-485 cells [4]; with topotecan): additive
IC50 (MRC-5 cells): > 20 µM
IC50 (PER-703 cells): 4.9 µM
combination effect (Bliss) (MOLM13 cells; with cytarabine): synergy
combination effect (Bliss) (MOLM13 cells; with daunorubicin): synergy
combination effect (Bliss) (MOLM13 cells; with etoposide): additive
combination effect (Bliss) (MOLM13 cells; with mitoxantrone): additive
combination effect (Bliss) (MOLM13 cells; with topotecan): additive
expression of genes not regulated by NR5A1 (HOXA9, HOXA10, MEIS1, MYB) ([6]; KMT2A-r cell lines): remained unchanged
expression of NR5A1 target genes ENO1 and PKM ([6]; sensitive KMT2A-r cell lines, before induction of apoptosis): significantly decreased
percentage of annexin V-positive KMT2A-r cells [7]: significantly increased
